The values that follow come from patent publication US11866720B2, “Transgenic or non-transgenic plants with mutated protoporphyrinogen oxidase having increased tolerance to herbicides” (priority 2013, dated 2024).

Substitutions are numbered along the chain they refer to. Values joined by “and” are separate entries in the source; they are usually repeats but may differ in a detail not shown here. Identical values can stand only once. Bounds are passed on as bounds.

Common to all, as to test: biochemical
Details in all cases: IC50 (M)

Assay [1] addresses T1, recombinant wildtype and mutated PPO (Amaranthus PPO2: PPX2L_WC SEQ ID NO 2, PPX2L_AC SEQ ID NO 4, dG210 SEQ ID NO 6 & 8) (Amaranthus tuberculatus, UniProt Q0NZW9, D133A/F420I/R128Y).
T1 sequence (Q0NZW9 1-534 R128Y/D133A/F420I): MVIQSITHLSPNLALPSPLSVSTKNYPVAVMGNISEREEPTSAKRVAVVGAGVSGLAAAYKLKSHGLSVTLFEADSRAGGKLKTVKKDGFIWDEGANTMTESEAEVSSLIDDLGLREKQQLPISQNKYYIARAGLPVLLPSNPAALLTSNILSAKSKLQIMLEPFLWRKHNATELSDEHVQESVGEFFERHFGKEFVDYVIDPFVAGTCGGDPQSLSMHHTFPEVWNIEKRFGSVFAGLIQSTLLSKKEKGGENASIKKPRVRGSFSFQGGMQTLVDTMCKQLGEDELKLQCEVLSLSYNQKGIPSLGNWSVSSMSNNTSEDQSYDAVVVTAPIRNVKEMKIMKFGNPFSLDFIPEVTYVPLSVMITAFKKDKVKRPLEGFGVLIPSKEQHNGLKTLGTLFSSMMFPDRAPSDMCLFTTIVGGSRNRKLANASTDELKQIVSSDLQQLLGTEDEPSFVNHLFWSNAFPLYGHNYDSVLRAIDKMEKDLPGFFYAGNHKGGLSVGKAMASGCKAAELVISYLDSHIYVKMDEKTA

For assay [2], the target named is recombinant wildtype and mutated PPO (Amaranthus PPO2: PPX2L_WC SEQ ID NO 2, PPX2L_AC SEQ ID NO 4, dG210 SEQ ID NO 6 & 8) (Amaranthus tuberculatus, UniProt Q0NZW9, D133A/F420L/R128C).
recombinant wildtype and mutated PPO (Amaranthus PPO2: PPX2L_WC SEQ ID NO 2, PPX2L_AC SEQ ID NO 4, dG210 SEQ ID NO 6 & 8) (Amaranthus tuberculatus, UniProt Q0NZW9, D133A/F420L/R128C), sequence (Q0NZW9 1-534 R128C/D133A/F420L): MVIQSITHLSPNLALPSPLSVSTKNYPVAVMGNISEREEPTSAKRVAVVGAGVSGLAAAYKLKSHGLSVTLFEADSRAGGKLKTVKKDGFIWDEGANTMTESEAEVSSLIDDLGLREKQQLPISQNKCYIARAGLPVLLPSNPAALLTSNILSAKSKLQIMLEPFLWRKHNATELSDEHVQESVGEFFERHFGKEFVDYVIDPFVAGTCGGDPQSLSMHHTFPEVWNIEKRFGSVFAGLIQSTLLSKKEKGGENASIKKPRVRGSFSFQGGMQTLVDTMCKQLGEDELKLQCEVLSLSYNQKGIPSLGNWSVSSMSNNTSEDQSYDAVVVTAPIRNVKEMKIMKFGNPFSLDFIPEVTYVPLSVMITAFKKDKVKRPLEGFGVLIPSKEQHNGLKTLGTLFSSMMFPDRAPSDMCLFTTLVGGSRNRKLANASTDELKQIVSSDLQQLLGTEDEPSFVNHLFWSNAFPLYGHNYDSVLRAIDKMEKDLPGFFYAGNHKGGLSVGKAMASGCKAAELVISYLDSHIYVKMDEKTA
For assay [3], the target named is T2, recombinant wildtype and mutated PPO (Amaranthus PPO2: PPX2L_WC SEQ ID NO 2, PPX2L_AC SEQ ID NO 4, dG210 SEQ ID NO 6 & 8) (Amaranthus tuberculatus, UniProt Q0NZW9, D133A/F420M/R128Y).
T2 sequence (Q0NZW9 1-534 R128Y/D133A/F420M): T1 sequence (Q0NZW9 1-534 R128Y/D133A/F420I) with I420M

Assay [4] addresses T3, recombinant wildtype and mutated PPO (Amaranthus PPO2: PPX2L_WC SEQ ID NO 2, PPX2L_AC SEQ ID NO 4, dG210 SEQ ID NO 6 & 8) (Amaranthus tuberculatus, UniProt Q0NZW9, D133A/F420L/R128F).
T3 sequence (Q0NZW9 1-534 R128F/D133A/F420L): T1 sequence (Q0NZW9 1-534 R128Y/D133A/F420I) with Y128F, I420L

Assay [5] has as its target recombinant wildtype and mutated PPO (Amaranthus PPO2: PPX2L_WC SEQ ID NO 2, PPX2L_AC SEQ ID NO 4, dG210 SEQ ID NO 6 & 8) (Amaranthus tuberculatus, UniProt Q0NZW9, D133A/F420M/R128G).
The target of assay [6] is recombinant wildtype and mutated PPO (Amaranthus PPO2: PPX2L_WC SEQ ID NO 2, PPX2L_AC SEQ ID NO 4, dG210 SEQ ID NO 6 & 8) (Amaranthus tuberculatus, UniProt Q0NZW9, D133A/F420M/R128S).
recombinant wildtype and mutated PPO (Amaranthus PPO2: PPX2L_WC SEQ ID NO 2, PPX2L_AC SEQ ID NO 4, dG210 SEQ ID NO 6 & 8) (Amaranthus tuberculatus, UniProt Q0NZW9, D133A/F420M/R128S), sequence (Q0NZW9 1-534 R128S/D133A/F420M): as the sequence (Q0NZW9 1-534 R128C/D133A/F420L) above, with C128S, L420M counted along it

recombinant wildtype and mutated PPO (Amaranthus PPO2: PPX2L_WC SEQ ID NO 2, PPX2L_AC SEQ ID NO 4, dG210 SEQ ID NO 6 & 8) (Amaranthus tuberculatus, UniProt Q0NZW9, D133A/F420M/R128G), sequence (Q0NZW9 1-534 R128G/D133A/F420M): as the sequence (Q0NZW9 1-534 R128C/D133A/F420L) above, with C128G, L420M counted along it

Take `C#CCN1C(=O)COc2cc(F)c(N3C(=O)C4=C(CCCC4)C3=O)cc21` [Flumioxazin, flumioxazin]: the IC50 in assay [1], in assay [2] and in assay [3] was not below 1e-05 M each time.

On to `C=CCOC(=O)C(C)(C)OC(=O)c1cc(-n2c(=O)cc(C(F)(F)F)n(C)c2=O)ccc1Cl` [BUTAFENACIL], for which the IC50 (commonly the point on the concentration scale where inhibition reaches its midpoint) in assay [1] was found to be 5.47e-08 M; in assay [2] it was 1.1e-07 M; in assay [3], 5.04e-08 M.

`C#CCN1C(=O)C(F)(F)Oc2cc(F)c(-n3c(=O)n(C)c(=S)n(C)c3=O)cc21`: the IC50 is 4.82e-07 M and 2.63e-06 M in assay [1]; 1e-07 M and 1.83e-07 M in assay [2]; 1.01e-06 M in assay [4]; 1.26e-08 M in assay [5]; 2.4e-08 M in assay [6]; 2.85e-07 M and 1.02e-07 M in assay [3].

In the case of `COC(=O)C(OC)Oc1ccccc1Oc1cc(-n2c(=O)cc(C(F)(F)F)n(C)c2=O)c(F)cc1Cl` (centres unmarked), the IC50 in assay [1] came out at 2.86e-08 M; in assay [4], 4.84e-08 M; in assay [5] it was 4.76e-08 M; in assay [6] it was 3.62e-08 M.

With `O=C(O)c1cc(Oc2ccc(C(F)(F)F)cc2Cl)ccc1[N+](=O)[O-]` [ACIFLUORFEN], the IC50 in assay [1], in assay [2] and in assay [3] was not below 1e-05 M each time.

Consider `CCOC(=O)COc1ncccc1Oc1cc(-n2c(=O)cc(C(F)(F)F)n(C)c2=O)c(F)cc1Cl` [A.13, ethyl [3-[2-chloro-4-fluoro-5-(1-methyl-6-trifluoromethyl-2,4-dioxo-1,2,3,4-tetrahydropyrimidin-3-yl)phenoxy]-2-pyridyloxy]acetate], for which the IC50 in assay [1] worked out at 4.64e-07 M; in assay [2], 6.81e-07 M; in assay [3] it was 8.92e-08 M.

With `CCOc1cc(Oc2ccc(C(F)(F)F)cc2Cl)ccc1[N+](=O)[O-]` [OXIFLUORFEN], the IC50 in assay [1] worked out at 1.17e-06 M; in assay [2], 1.49e-06 M; in assay [3], 1.13e-06 M.

In the case of `CS(=O)(=O)NC(=O)c1cc(Oc2ccc(C(F)(F)F)cc2Cl)ccc1[N+](=O)[O-]` [Fomesafen, fomesafen], the IC50 in assay [1] is 2.15e-05 M; in assay [2], not below 1e-05 M; in assay [3], not below 1e-05 M.

Consider `CCOC(=O)C(C)OC(=O)c1cc(Oc2ccc(C(F)(F)F)cc2Cl)ccc1[N+](=O)[O-]` (centres unmarked) [Lactofen, lactofen], for which the IC50 turned out to be 4.8e-08 M in assay [1], 1.42e-07 M in assay [2] and 1.43e-07 M in assay [3].

Consider `CCOC(=O)C(Cl)Cc1cc(-n2nc(C)n(C(F)F)c2=O)c(F)cc1Cl` (centres unmarked) [CARFENTRAZONE-ETHYL], for which the figures for the half-inhibitory concentration (IC50) in assay [1], in assay [2] and in assay [3] were 2.82e-07 M, 3.08e-07 M and 8.52e-08 M, respectively.

Consider `COC(Oc1ccccc1Oc1cc(-n2c(=O)cc(C(F)(F)F)n(C)c2=O)c(F)cc1Cl)C(=O)OC1CCCCC1` (centres unmarked), for which the IC50 was found to be 6.82e-07 M in assay [1], 1.18e-06 M in assay [4], 5.14e-08 M in assay [5] and 5.24e-08 M in assay [6].

Take `C#CCN1C(=O)C(F)(F)Oc2cc(F)c(N3C(=O)C4=C(CCCC4)C3=O)cc21`: the IC50 in assay [1], in assay [2] and in assay [3] was not below 1e-05 M each time.

Turning to `C#CCN1C(=O)C(F)(F)Oc2cc(F)c(-n3c(=O)cc(C(F)(F)F)n(C)c3=O)cc21`, the results for the IC50 in assay [1], in assay [2] and in assay [3] were 4.46e-07 M, 6.72e-08 M and 1.13e-07 M, respectively.
